# From ChEMBL document CHEMBL4507288 (2021)
# Active and inactive are the calls of the source. The calls are words filed in the database; no cut-off is given here.
# Experiments:
# [1] = biological target: 5-hydroxytryptamine receptor 1B (Homo sapiens, UniProt P28222); conditions: Compound concentration 10.0 uM
# [2] = biological target: Amyloid-beta precursor protein (Homo sapiens, UniProt P05067); assay: Aβ40 inhibition assay
# [3] = biological target: 5-hydroxytryptamine receptor 1D (Homo sapiens, UniProt P28221); conditions: Compound concentration 10.0 uM
# [4] = biological target: GABA-A receptor; anion channel (Rattus norvegicus) (UniProt O09028+P15431+P18506+P18508+P19969+P20236+P23574+P23576+P28471+P28473+P30191+P62813+P63079+P63138+Q91ZM7+Q9ES14); conditions: Compound concentration 10.0 uM
# [5] = biological target: Alpha-2B adrenergic receptor (Homo sapiens) (UniProt P18089); conditions: Compound concentration 10.0 uM
# [6] = biological target: D(1A) dopamine receptor (Homo sapiens) (UniProt P21728); conditions: Compound concentration 10.0 uM
# [7] = biological target: Muscarinic acetylcholine receptor M4 (Homo sapiens) (UniProt P08173); conditions: Compound concentration 10.0 uM
# [8] = biological target: Muscarinic acetylcholine receptor M1 (Homo sapiens) (UniProt P11229); conditions: Compound concentration 10.0 uM
# [9] = biological target: Muscarinic acetylcholine receptor M2 (Homo sapiens) (UniProt P08172); conditions: Compound concentration 10.0 uM
# D(2) dopamine receptor = D(2) dopamine receptor (Homo sapiens, UniProt P14416); conditions: Compound concentration 10.0 uM
# [10] = biological target: Alpha-2C adrenergic receptor (Homo sapiens) (UniProt P18825); conditions: Compound concentration 10.0 uM
# [11] = biological target: Sodium-dependent noradrenaline transporter (Homo sapiens, UniProt P23975); conditions: Compound concentration 10.0 uM
# [12] = biological target: 5-hydroxytryptamine receptor 5A (Homo sapiens) (UniProt P47898); conditions: Compound concentration 10.0 uM
# [13] = biological target: 5-hydroxytryptamine receptor 2B (Homo sapiens, UniProt P41595); conditions: Compound concentration 10.0 uM
# [14] = biological target: Mu-type opioid receptor (Homo sapiens) (UniProt P35372); conditions: Compound concentration 10.0 uM
# [15] = biological target: Alpha-1B adrenergic receptor (Homo sapiens) (UniProt P35368); conditions: Compound concentration 10.0 uM
# [16] = biological target: Histamine H1 receptor (Homo sapiens) (UniProt P35367); conditions: Compound concentration 10.0 uM
# [17] = biological target: 5-hydroxytryptamine receptor 7 (Homo sapiens, UniProt P34969); conditions: Compound concentration 10.0 uM
# [18] = biological target: Delta-type opioid receptor (Homo sapiens) (UniProt P41143); conditions: Compound concentration 10.0 uM
# [19] = biological target: 5-hydroxytryptamine receptor 1A (Homo sapiens) (UniProt P08908); conditions: Compound concentration 10.0 uM
# [20] = biological target: Alpha-1D adrenergic receptor (Homo sapiens) (UniProt P25100); conditions: Compound concentration 10.0 uM
# [21] = biological target: Sigma non-opioid intracellular receptor 1 (Homo sapiens, UniProt Q99720); conditions: Compound concentration 10.0 uM
# D(3) dopamine receptor = D(3) dopamine receptor (Homo sapiens, UniProt P35462); conditions: Compound concentration 10.0 uM
# [22] = biological target: Histamine H3 receptor (Homo sapiens) (UniProt Q9Y5N1); conditions: Compound concentration 10.0 uM
# [23] = biological target: D(4) dopamine receptor (Homo sapiens) (UniProt P21917); conditions: Compound concentration 10.0 uM
# [24] = biological target: Muscarinic acetylcholine receptor M5 (Homo sapiens) (UniProt P08912); conditions: Compound concentration 10.0 uM
# [25] = biological target: 5-hydroxytryptamine receptor 2A (Homo sapiens, UniProt P28223); conditions: Compound concentration 10.0 uM
# [26] = biological target: Alpha-2A adrenergic receptor (Homo sapiens) (UniProt P08913); conditions: Compound concentration 10.0 uM
# [27] = biological target: Alpha-1A adrenergic receptor (Homo sapiens) (UniProt P35348); conditions: Compound concentration 10.0 uM
# [28] = biological target: Sodium-dependent serotonin transporter (Homo sapiens) (UniProt P31645); conditions: Compound concentration 10.0 uM
# [29] = biological target: D(1B) dopamine receptor (Homo sapiens) (UniProt P21918); conditions: Compound concentration 10.0 uM
# [30] = biological target: Sodium-dependent dopamine transporter (Homo sapiens, UniProt Q01959); conditions: Compound concentration 10.0 uM
# [31] = biological target: 5-hydroxytryptamine receptor 3A (Homo sapiens) (UniProt P46098); conditions: Compound concentration 10.0 uM
# [32] = biological target: Kappa-type opioid receptor (Homo sapiens, UniProt P41145); conditions: Compound concentration 10.0 uM
# [33] = biological target: Sigma intracellular receptor 2 (Homo sapiens, UniProt Q5BJF2); conditions: Compound concentration 10.0 uM
# [34] = biological target: 5-hydroxytryptamine receptor 2C (Homo sapiens) (UniProt P28335); conditions: Compound concentration 10.0 uM
# [35] = biological target: 5-hydroxytryptamine receptor 6 (Homo sapiens) (UniProt P50406); conditions: Compound concentration 10.0 uM
# [36] = biological target: Beta-3 adrenergic receptor (Homo sapiens) (UniProt P13945); conditions: Compound concentration 10.0 uM
# [37] = biological target: Vascular endothelial growth factor receptor 1 (Homo sapiens) (UniProt P17948); conditions: Compound concentration 1000.0 nM
# [38] = biological target: Ephrin type-B receptor 3 (Homo sapiens) (UniProt P54753); conditions: Compound concentration 1000.0 nM
# [39] = biological target: Mitogen-activated protein kinase kinase kinase 19 (Homo sapiens) (UniProt Q56UN5); conditions: Compound concentration 1000.0 nM
# [40] = test system: Proto-oncogene tyrosine-protein kinase receptor Ret (Homo sapiens), P07949 [V804L]; conditions: Compound concentration 1000.0 nM
# [41] = biological target: Homeodomain-interacting protein kinase 1 (Homo sapiens) (UniProt Q86Z02); conditions: Compound concentration 1000.0 nM
# [42] = biological target: Myosin-IIIa (Homo sapiens) (UniProt Q8NEV4); conditions: Compound concentration 1000.0 nM
# [43] = test system: Phosphatidylinositol 4,5-bisphosphate 3-kinase catalytic subunit alpha isoform (Homo sapiens), P42336 [C420R]; conditions: Compound concentration 1000.0 nM
# [44] = biological target: Casein kinase I isoform delta (Homo sapiens) (UniProt P48730); conditions: Compound concentration 1000.0 nM
# Sequence of Kappa-type opioid receptor (P41145 whole entry): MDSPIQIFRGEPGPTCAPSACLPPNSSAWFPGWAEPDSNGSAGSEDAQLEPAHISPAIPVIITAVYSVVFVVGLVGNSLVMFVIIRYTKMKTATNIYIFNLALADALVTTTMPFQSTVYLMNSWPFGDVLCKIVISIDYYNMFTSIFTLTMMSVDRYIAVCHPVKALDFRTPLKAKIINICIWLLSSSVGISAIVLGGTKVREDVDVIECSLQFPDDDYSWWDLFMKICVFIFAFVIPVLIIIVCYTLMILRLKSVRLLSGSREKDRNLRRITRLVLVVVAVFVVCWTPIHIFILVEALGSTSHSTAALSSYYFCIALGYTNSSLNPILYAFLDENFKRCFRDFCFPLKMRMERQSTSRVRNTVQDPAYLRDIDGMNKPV
# Sequence of Alpha-1D adrenergic receptor (Homo sapiens) (P25100 whole entry): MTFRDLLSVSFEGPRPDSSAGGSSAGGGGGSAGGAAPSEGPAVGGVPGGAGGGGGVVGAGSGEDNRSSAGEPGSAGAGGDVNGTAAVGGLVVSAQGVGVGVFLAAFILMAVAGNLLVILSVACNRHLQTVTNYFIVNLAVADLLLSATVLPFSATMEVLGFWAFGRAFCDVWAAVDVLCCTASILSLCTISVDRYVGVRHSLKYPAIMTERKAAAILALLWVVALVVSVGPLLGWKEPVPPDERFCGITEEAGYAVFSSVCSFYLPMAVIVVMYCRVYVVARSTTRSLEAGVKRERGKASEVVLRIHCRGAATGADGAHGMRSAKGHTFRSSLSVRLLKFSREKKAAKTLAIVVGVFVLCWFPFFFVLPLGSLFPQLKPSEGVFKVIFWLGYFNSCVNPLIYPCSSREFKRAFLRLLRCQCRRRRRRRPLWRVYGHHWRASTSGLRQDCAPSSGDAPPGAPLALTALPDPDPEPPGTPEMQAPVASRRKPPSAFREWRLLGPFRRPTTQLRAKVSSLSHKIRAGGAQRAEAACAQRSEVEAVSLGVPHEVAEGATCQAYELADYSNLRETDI
# Sequence of Alpha-2B adrenergic receptor (Homo sapiens) (P18089 whole entry): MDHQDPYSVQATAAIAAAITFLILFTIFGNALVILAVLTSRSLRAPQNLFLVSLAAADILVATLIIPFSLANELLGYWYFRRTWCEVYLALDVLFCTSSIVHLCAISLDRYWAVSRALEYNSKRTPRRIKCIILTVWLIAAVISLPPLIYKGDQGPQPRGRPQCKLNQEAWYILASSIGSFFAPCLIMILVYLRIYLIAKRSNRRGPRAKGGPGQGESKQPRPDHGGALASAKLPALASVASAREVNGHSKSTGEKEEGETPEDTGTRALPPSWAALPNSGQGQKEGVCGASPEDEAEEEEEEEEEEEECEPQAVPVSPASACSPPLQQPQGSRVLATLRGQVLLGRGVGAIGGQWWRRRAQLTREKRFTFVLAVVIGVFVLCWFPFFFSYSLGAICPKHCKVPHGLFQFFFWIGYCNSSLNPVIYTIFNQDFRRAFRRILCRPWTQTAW
# Sequence of 5-hydroxytryptamine receptor 1D (P28221 whole entry): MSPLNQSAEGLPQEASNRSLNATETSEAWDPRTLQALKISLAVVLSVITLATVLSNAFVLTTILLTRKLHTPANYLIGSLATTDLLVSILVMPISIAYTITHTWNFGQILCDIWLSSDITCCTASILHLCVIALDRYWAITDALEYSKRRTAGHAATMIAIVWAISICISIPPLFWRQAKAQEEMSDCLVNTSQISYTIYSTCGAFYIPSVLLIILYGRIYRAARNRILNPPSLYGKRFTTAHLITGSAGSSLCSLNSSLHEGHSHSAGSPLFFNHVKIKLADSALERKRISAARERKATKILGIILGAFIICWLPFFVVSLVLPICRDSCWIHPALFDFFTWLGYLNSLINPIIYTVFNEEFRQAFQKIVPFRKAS
# Sequence of Muscarinic acetylcholine receptor M4 (Homo sapiens) (P08173 whole entry): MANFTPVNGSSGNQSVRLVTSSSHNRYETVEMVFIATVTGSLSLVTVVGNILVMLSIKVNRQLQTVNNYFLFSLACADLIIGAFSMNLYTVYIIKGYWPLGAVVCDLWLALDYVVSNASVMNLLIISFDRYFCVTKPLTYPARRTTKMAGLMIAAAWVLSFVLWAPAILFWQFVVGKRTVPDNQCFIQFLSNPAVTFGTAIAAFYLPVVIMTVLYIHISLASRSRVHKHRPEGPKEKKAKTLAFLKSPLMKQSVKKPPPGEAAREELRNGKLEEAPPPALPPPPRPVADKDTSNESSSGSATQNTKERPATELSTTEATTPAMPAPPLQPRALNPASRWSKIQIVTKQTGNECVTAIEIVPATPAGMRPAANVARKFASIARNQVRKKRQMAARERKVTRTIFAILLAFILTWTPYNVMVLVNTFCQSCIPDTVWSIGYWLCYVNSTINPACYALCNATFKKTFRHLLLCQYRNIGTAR
# Sequence of 5-hydroxytryptamine receptor 7 (P34969 whole entry): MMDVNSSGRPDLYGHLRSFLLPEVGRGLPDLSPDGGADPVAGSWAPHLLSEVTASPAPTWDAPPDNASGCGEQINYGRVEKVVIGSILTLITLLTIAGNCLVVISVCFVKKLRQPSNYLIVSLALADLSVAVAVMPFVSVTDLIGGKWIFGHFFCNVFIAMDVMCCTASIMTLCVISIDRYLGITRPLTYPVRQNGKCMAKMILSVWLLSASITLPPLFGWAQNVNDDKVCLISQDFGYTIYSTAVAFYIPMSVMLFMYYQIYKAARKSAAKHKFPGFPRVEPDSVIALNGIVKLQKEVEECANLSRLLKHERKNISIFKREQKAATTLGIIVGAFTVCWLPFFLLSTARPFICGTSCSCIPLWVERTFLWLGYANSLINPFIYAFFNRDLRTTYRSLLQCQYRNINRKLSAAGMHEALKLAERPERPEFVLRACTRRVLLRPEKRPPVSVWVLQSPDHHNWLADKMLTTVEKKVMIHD
# Sequence of D(2) dopamine receptor (P14416 whole entry): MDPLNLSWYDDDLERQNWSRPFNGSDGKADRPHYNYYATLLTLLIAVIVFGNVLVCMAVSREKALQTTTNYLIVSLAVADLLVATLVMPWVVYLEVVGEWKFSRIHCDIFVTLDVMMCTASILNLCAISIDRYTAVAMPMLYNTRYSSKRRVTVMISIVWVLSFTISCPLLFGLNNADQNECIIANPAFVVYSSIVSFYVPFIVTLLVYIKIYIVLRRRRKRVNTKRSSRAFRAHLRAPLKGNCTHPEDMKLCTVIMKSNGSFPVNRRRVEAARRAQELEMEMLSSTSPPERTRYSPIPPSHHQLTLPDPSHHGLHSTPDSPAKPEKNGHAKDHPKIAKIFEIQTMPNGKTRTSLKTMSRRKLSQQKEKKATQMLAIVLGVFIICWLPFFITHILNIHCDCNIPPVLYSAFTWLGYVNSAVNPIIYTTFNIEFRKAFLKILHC
# Sequence of 5-hydroxytryptamine receptor 3A (Homo sapiens) (P46098 whole entry): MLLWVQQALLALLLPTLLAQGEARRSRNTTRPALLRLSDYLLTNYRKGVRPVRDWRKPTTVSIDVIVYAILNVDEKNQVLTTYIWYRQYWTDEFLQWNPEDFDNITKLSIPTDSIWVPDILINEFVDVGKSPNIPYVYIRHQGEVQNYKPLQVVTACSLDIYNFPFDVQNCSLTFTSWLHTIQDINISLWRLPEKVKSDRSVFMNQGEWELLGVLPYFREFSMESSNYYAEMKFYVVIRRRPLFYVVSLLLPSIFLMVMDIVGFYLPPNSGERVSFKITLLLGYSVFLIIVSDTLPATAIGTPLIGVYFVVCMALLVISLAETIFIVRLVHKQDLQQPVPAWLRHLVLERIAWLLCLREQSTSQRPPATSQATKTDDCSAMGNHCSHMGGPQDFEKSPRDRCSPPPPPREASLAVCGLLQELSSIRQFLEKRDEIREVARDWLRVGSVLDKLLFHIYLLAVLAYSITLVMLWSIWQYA
# Sequence of 5-hydroxytryptamine receptor 5A (Homo sapiens) (P47898 whole entry): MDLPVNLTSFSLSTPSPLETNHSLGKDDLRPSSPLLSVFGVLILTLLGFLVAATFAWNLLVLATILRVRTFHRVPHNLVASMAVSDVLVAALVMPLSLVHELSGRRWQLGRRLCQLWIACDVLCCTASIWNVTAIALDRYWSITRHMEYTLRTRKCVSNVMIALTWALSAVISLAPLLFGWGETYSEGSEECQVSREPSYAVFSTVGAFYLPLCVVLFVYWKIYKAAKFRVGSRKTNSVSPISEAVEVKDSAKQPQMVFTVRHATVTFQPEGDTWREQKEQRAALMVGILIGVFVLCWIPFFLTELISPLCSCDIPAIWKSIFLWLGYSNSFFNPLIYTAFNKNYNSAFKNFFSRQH
# Sequence of Sodium-dependent noradrenaline transporter (P23975 whole entry): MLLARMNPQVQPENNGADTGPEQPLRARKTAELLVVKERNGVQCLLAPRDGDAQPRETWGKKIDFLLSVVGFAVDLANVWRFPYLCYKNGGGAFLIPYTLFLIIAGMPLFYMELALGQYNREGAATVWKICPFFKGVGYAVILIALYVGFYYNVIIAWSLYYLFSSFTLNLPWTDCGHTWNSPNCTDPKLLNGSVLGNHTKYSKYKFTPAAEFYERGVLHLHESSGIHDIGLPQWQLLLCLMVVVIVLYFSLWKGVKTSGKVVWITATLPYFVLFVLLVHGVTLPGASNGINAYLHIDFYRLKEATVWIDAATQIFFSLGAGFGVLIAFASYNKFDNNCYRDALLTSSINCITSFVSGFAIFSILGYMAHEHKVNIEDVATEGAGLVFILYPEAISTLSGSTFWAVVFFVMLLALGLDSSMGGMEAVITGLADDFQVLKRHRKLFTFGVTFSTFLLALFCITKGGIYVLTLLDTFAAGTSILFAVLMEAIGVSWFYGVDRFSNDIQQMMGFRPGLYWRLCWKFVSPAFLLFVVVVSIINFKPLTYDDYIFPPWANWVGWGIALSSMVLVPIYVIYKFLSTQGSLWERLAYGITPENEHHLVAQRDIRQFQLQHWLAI
# Sequence of Sigma non-opioid intracellular receptor 1 (Q99720 whole entry): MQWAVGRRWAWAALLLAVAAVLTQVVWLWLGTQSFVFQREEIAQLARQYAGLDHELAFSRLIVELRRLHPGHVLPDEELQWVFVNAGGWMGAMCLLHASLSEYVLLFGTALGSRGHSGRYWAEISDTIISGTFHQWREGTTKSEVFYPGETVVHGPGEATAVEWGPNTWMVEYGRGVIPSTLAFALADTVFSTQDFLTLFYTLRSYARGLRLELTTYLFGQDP
smiles,measurement,setting,value
CC(C)(C)OC(=O)N1CCCC1CNC1CCC(c2cc(F)ccc2F)(S(=O)(=O)c2ccc(Cl)cc2)CC1 (centres undefined) [GSI-NC],inhibition,[1],70.4%
same,IC50,[2],1.6 µM (not active)
same,inhibition,[3],61.4%
same,inhibition,[4],14.6%
same,inhibition,[5],77.4%
same,inhibition,[6],13.8%
same,inhibition,[7],25.6%
same,inhibition,[8],8.44%
same,inhibition,[9],9.4%
same,inhibition,D(2) dopamine receptor,83%
same,inhibition,[10],81.4%
same,inhibition,[11],50.7%
same,inhibition,[12],35%
same,inhibition,[13],97.2%
same,inhibition,[14],49.1%
same,inhibition,[15],41%
same,inhibition,[16],25.6%
same,inhibition,[17],70.7%
same,inhibition,[18],21.4%
same,inhibition,[19],66.3%
same,inhibition,[20],22.5%
same,inhibition,[21],91.6%
same,inhibition,D(3) dopamine receptor,86.1%
same,inhibition,[22],26.9%
same,inhibition,[23],20.4%
same,inhibition,[24],26.5%
same,inhibition,[25],92.2%
same,inhibition,[26],82.3%
same,inhibition,[27],12.4%
same,inhibition,[28],6.71%
same,inhibition,[29],13.1%
same,inhibition,[30],95.9%
same,inhibition,[31],-5.6%
same,inhibition,[32],69.8%
same,inhibition,[33],83.4%
same,inhibition,[34],80.9%
same,inhibition,[35],37.1%
same,inhibition,[36],25.6%
O=S(=O)(NC1CCC(c2cc(F)ccc2F)(S(=O)(=O)c2ccc(Cl)cc2)CC1)C(F)(F)F (centres undefined) [MRK-560],inhibition,[1],15.4%
same,residual activity,[37],86%
same,IC50,[2],< 0.0005 µM (active)
same,inhibition,[3],13.9%
same,inhibition,[4],28.6%
same,inhibition,[5],-2.13%
same,inhibition,[6],17.4%
same,residual activity,[38],100%
same,inhibition,[7],18.9%
same,inhibition,[8],-5.38%
same,residual activity,[39],84%
same,inhibition,[9],-0.654%
same,inhibition,D(2) dopamine receptor,11.4%
same,residual activity,[40],84%
same,inhibition,[10],18.2%
same,inhibition,[11],7.49%
same,inhibition,[12],-5.05%
same,inhibition,[13],4.74%
same,inhibition,[14],20%
same,inhibition,[15],-5.22%
same,inhibition,[16],20.3%
same,inhibition,[17],-5.02%
same,inhibition,[18],20%
same,residual activity,[41],100%
same,inhibition,[19],18.3%
same,inhibition,[20],0.882%
same,inhibition,[21],36.8%
same,residual activity,[42],91%
same,inhibition,D(3) dopamine receptor,21.7%
same,inhibition,[22],14.2%
same,inhibition,[23],20.1%
same,inhibition,[24],1.96%
same,inhibition,[25],31.2%
same,inhibition,[26],8.45%
same,inhibition,[27],9.88%
same,residual activity,[43],36%
same,inhibition,[28],-3.67%
same,inhibition,[29],11.3%
same,inhibition,[30],75.1%
same,inhibition,[31],-8.12%
same,inhibition,[32],24.6%
same,inhibition,[33],25.2%
same,inhibition,[34],12.3%
same,residual activity,[44],87%
same,inhibition,[35],12.3%
same,inhibition,[36],13.5%
